According to patent publication US8951747B2, “Method for modulating activity of T lymphocytes” (Ludwig Institute for Cancer Research, priority 2007, dated 2015):

Columns and labels:
Assay type in all cases: cell-based, human
[1] = tested on: CD8+ TILs from gastric carcinoma ascites; assay: TCR CD8 FRET on CD8+ TILs; conditions: 1 mM LacNAc, 37° C., 5 hours of treatment; compared with tetramer^high CD8TL A10
Description: (§1) To elaborate, samples of 2×10^5 cells were washed in Hank's medium that had been supplemented with 1% human serum, and were then resuspended, in 50 μl of medium, which contained either an anti-TCRβ-PE antibody (the “donor” antibody), or an anti-CD8α-Alexa647 antibody (the “acceptor” antibody), or both. The former was diluted at 1/20 and the latter, at 1/300.
(§2) Samples were incubated for 30 minutes at 4° C., washed, and fixed with paraformaldehyde (2% w/v in PBS). Analysis was carried out on a FACS system, and transfer of fluorescence was calculated as FRET units, in accordance with Doucey, et al., J. Biol. Chem., 278:3257-3264 (2003), incorporated by reference. A FRET unit is defined as: [E3both−E3none]−[(E3A647−E3none)×(E2both/E2A647)]−[(E3PE−3none)×(E1both/E1PE)]
These experiments tested the impact of N-acetyllactosamine (LacNAc) on colocalization. Gastric carcinoma ascites were screened for CD8^+ TILs, after they had been incubated for various time periods at 37° C., with 1 mM of LacNAc, and washed. As a control, the line CD8TL A10 was used, two weeks after its last antigenic stimulation.

CD8TL clone A10 [2] = assay: HLA-peptide tetramer staining of tetramer^low CD8TLs; conditions: for tetramer staining (ability to bind tetramers): tetramer^low cells, day 4 after stimulation, incubated 2 hours, o-phenantholin 30 μM, lactose 100 mM, LacNAc 1 mM, sucrose 100 nM, vs untreated cells
Description: Fourteen days after the stimulation, the CD8TLs were then stained with complexes of HLA-A0101 folded with SEQ ID NO: 1, prepared as described by Coulie, et al., Proc. Natl. Acad. Sci. USA, 98:10290-10295 (2001), incorporated by reference. The complexes were biotinylated and then labeled with phycoerythrin (“PE”), using known methods. Staining was accomplished by incubating CD8TLs, for 10 minutes, at room temperature, with 5 nM of tetramer, and then washing.
(§3) To test this, cells of CD8TL clone A10 were collected, on days 0 and 4, after stimulation with HLA-A1^+, MAGE-3^+ tumor cells. Mean fluorescence indices were determined for both the high and low staining populations, on days 0 and 4. […] staining was carried out, as described supra, with cells that were either incubated with no test substance, or which had been incubated for 2 hours, on day 4, with one of o-phenantholin (30 μM), a known Zn chelator, lactose, (100 mM), LacNAc (1 mM), or sucrose (100 nM). The rationale behind the incubation with lactose, LacNAc, and sucrose is explained in Example 11. A final sample was incubated with swainsonin (0.5 μM) on day 0, before the cells were stimulated.
(§4) The cells were then washed, and analyzed for all of tetramer staining, proximity of the molecules via FRET, and IFN-γ production following antigenic stimulation.

CD8TL clone A10 [3] = assay: FRET analysis of TCR-CD8 proximity on tetramer^low CD8TLs; conditions: for FRET between TCR and CD8 (TCR-CD8 proximity): tetramer^low cells, day 4 after stimulation, incubated 2 hours, o-phenantholin 30 μM, lactose 100 mM, LacNAc 1 mM, sucrose 100 nM, vs untreated cells
Description: as §1, §2
E1 is the fluorescence detected at 580 nm, following excitation at 488 nm. E2 is fluorescence detected at 670 nm, following excitation at 630 nm, and E3 is fluorescence detected at 670 nm following excitation at 488 nm.
After the molecules are excited at the donor level, transfer of energy from donor to acceptor happens only if the distance between two molecules is less than 10 nm, with energy transfer being measured by emission at the acceptor wavelength.
as §3, §4

tetramer^low CD8TLs = assay: IFN-γ release by tetramer^low CD8TLs treated with galectin-3 binders or neuraminidase; conditions: CD8TLs collected 3-4 days after stimulation
Description: To test this, tetramer^low CD8TLs, collected 3-4 days after stimulation, as described supra, were treated with LacNAc, a known competitive binder of galectin-3. Release of IFN-γ was restored.
These experiments were repeated testing two other galectin-3 binders, “tri-LacNAc,” and an antibody against the N-terminus of galectin-3.
The experiments described herein, using neuraminidase, were carried out on human CD8TLs, and the results parallel those observed by Kao, et al., Immunol., 17:1607-1617 (2005), on murine cells. It is hypothesized that a sialic acid residue may be present, near the LacNAc motif of galectin-binding proteins, and act to increase galectin-3 affinity.

[4] = tested on: kidney infiltrating T cells isolated from the kidney allograft; assay: IFN-γ production by functional kidney infiltrating T cells; conditions: LacNAc treatment; stimulation with allogeneic EBV-B cells or anti-CD3/CD28 beads
Source text: A standard depletion strategy was used to isolate CD8^+ T cells from a breast carcinoma metastasis, ovarian carcinoma ascites, blood, and a kidney allograft that had been resected during a chronic rejection process.
As was noted supra, there was clear TCR CD8 FRET on kidney infiltrating T cells isolated from the kidney allograft. These T cells released IFN-γ upon stimulation with allogeneic EBV-B cells, or beads coated with anti-CD3/CD28 antibodies.
Different treatments were not, however, unspecific.

[5] = tested on: TILs from ovarian cancer ascites; assay: IFN-γ response of anergic TILs to stimulation; conditions: overnight incubation with 1 mM LacNAc
Description: It was confirmed by the fact that, notwithstanding overnight stimulation with a mixed population of tumor cells, B cells, and macrophages collected from the same ascites, or with allogenic EBV-β cells. IFNγ was not produced.
When these anergic TILs were incubated overnight with 1 mM LacNAc, their IFN-γ response increased more than 10 fold.

CD8TL clone A10 [6] = assay: IFN-γ production following antigenic stimulation; conditions: for ability to release IFN-γ upon antigenic stimulation: tetramer^low cells, day 4 after stimulation, incubated 2 hours, o-phenantholin 30 μM, lactose 100 mM, LacNAc 1 mM, sucrose 100 nM, vs untreated cells
Description: In addition to the experiments set forth, supra the effector capability of the T lymphocytes was tested, at various points during the period in which they were stimulated. Stimulation conditions are set forth in Example 1, supra. The effector activity was determined by contacting samples of 5000 CD8TLs with 2×10^5 HLA-A1 EBV-B cells which had been incubated for one hour with 1 μM of the peptide of SEQ ID NO: 1 at 37° C., and co-culturing the mixed sample, overnight. The amounts of IFN-γ and IL-2 resulting from the activation of the T cells were measured in the supernatants of the co-cultured cells via ELISAs.
as §3, §4

[7] = swainsonin 0.5 μM added on day 0 before restimulation, read at day 4

Row | SMILES | TCR CD8 FRET on TILs [1] | tetramer staining (ability to bind tetramers) (CD8TL clone A10 [2]) | FRET between TCR and CD8 (TCR-CD8 proximity) (CD8TL clone A10 [3]) | release of IFN-γ by tetramer^low CD8TLs (tetramer^low CD8TLs) | IFN-γ production of kidney infiltrating T cells [4] | increase of IFN-γ response to antigen stimulation [5] | ability to release IFN-γ upon antigenic stimulation (CD8TL clone A10 [6]) | tetramer staining (CD8TL clone A10 [2]; [7]) | FRET efficiency (TCR-CD8) (CD8TL clone A10 [3]; [7]) | ability to release IFN-γ when restimulated (CD8TL clone A10 [6]; swainsonin 0.5 μM added on day 0 before restimulation)
1 | CC(=O)N[C@H]1C(O)O[C@H](CO)[C@@H](O[C@@H]2O[C@H](CO)[C@H](O)[C@H](O)[C@H]2O)[C@@H]1O (stereo partly shown) [LacNAc, N-acetyl lactosamine] | recovered the same level of TCR CD8 FRET | higher degrees of tetramer staining | higher FRET efficiencies | restored | did not result in increased IFN-γ production | more than 10 fold | higher ability to release IFN-γ | – | – | –
2 | OC[C@H]1O[C@@](CO)(O[C@H]2O[C@H](CO)[C@@H](O)[C@H](O)[C@H]2O)[C@@H](O)[C@@H]1O [Sucrose, sucrose] | – | no effect | no effect | – | – | – | no effect | – | – | –
3 | O[C@H]1[C@H]2[C@H](O)CCCN2C[C@H]1O [Swainsonin, swainsonin] | – | – | – | – | – | – | – | higher tetramer staining | higher FRET efficiency | higher ability to release IFN-γ
4 | OC[C@H]1O[C@@H](O[C@H]2[C@H](O)[C@@H](O)C(O)O[C@@H]2CO)[C@H](O)[C@@H](O)[C@H]1O (stereo partly shown) [lactose] | – | higher degrees of tetramer staining | higher FRET efficiencies | – | – | – | higher ability to release IFN-γ | – | – | –
5 | c1cnc2c(c1)ccc1cccnc12 [o-phenantholin] | – | regained | regained FRET exchanges between the 2 molecules | – | – | – | regained | – | – | –
